We go through 1 compound from patent publication US20230272077A1, “PD-1 SIGNAL INHIBITOR COMBINATION THERAPY” (KYOTO UNIVERSITY, priority 2015, published 2023).

“Also recorded” adds a separate entry of the source.

Data set [1] has as its system CD8+ T cells. Here is the method: FIG. 6. […] Draining lymph node (DLN) cells on day 14 were stained with anti-CD8, -CD62L, and -CD44 antibodies, and then CD8^+ T cells were gated. P1 to P3 populations were defined based on the intensities of CD62L and CD44 (Upper). The absolute cell numbers of P1 to P3 in each group were calculated. […] Representative FACS profiles of P1 to P3 (Upper). Representative FACS profiles of the P3 population stained with each mitochondrial dye in each group (Middle). MFI of P1 to P3 stained with each dye was compared between treated groups. Colors correspond to the P1 to P3 populations. […] CD45^+ CD8^+ T cells were gated, and their CD62L and CD44 phenotypes were analyzed (Left). The frequencies of CD8^+ T cells in CD45^+ T cells and the absolute numbers of CD45^+ CD8^+ T cells were compared between groups (Right). Data represent the means±SEM of five mice. *p<0.05, **p<0.01, one-way ANOVA analysis. FACS data are representative of five mice in each group.
For analyzing draining lymph nodes, cells from axillary, brachial, and inguinal lymph nodes on the right side of tumor-inoculated mice were harvested and mixed. Averaged cell numbers per one lymph node were used as absolute cell numbers. For tumor analysis, tumor tissues were minced into 2- to 3-mm pieces with scissors and digested with collagenase type IV (Thermo Fisher Scientific) using a gentle MACS Dissociator (Miltenyi Biotec). The numbers of tumor cells per mg were used as absolute numbers. Tumor cells were isolated from digested tumor tissues using a Tumor Cell Isolation Kit, mouse (Miltenyi Biotec). This kit purifies tumor cells by excluding lymphocytes, red blood cells, fibroblasts, endothelial cells and tumor-associated stromal cells. The resultant tumor cell population was further isolated/purified with FACS Aria (BD Biosciences).
The following antibodies recognizing the indicated antigens were used: CD44 (1M7), CD45.2 (104), CD45.1 (A20), CD8 (53-6.7), CD62L (MEL-14), T-bet (4B/O) and IFN-7 (XMG1.2), MHC class I (AF6-88.5), CD155 (Tx56) and VISTA (MIH63) from BioLegend; p-AMPK (EPR5683) from Ancam; p-mTOR (MRRBY), Eomes (Danllmag) and PD-L1 (M1H5) from eBioscience. All flow cytometry experiments were performed on a FACS Canto II (BD Biosciences) and analyzed using FlowJo software (FLOWJO, LLC). For assessment of intracellular phosphoproteins, cells were permeabilized with 0.5% Triton-X and fixed with 1.5% PFA before staining. Determination of mitochondrial mass, membrane potential, mitochondrial superoxide and cellular ROS was performed using MitoTracker Green, Mito-Tracker Deep Red, MitoSOX Red, and CellROX Green reagents, respectively (all from Life Technologies). […]

Data set [2] deals with IFN-γ. Nature of the data set: Intracellular IFN-γ staining of CD8+ T cells from digested tumor tissues. It is filed as in vivo, mouse. The following applies: CD8+ T cells in tumors; combined with PD-L1 antibody. Here is the method: FIG. 15. […] Data represent the means±SEM of five mice. *p<0.05, **p<0.01, one-way ANOVA.
The following antibodies recognizing the indicated antigens were used: CD44 (1M7), CD45.2 (104), CD45.1 (A20), CD8 (53-6.7), CD62L (MEL-14), T-bet (4B/O) and IFN-7 (XMG1.2), MHC class I (AF6-88.5), CD155 (Tx56) and VISTA (MIH63) from BioLegend; p-AMPK (EPR5683) from Ancam; p-mTOR (MRRBY), Eomes (Danllmag) and PD-L1 (M1H5) from eBioscience. All flow cytometry experiments were performed on a FACS Canto II (BD Biosciences) and analyzed using FlowJo software (FLOWJO, LLC). For assessment of intracellular phosphoproteins, cells were permeabilized with 0.5% Triton-X and fixed with 1.5% PFA before staining. Determination of mitochondrial mass, membrane potential, mitochondrial superoxide and cellular ROS was performed using MitoTracker Green, Mito-Tracker Deep Red, MitoSOX Red, and CellROX Green reagents, respectively (all from Life Technologies). These dyes were added to cells to a final concentration of 0.125 μM, 0.125 μM, 5.0 μM and 0.625 μM, respectively, and incubated at 37° C. in a 5% CO2 humidified incubator for 30 min.

In the case of `N#CC(C#N)=NNc1ccc(OC(F)(F)F)cc1` [FCCP, carbonyl cyanide p-trifluoromethoxyphenylhydrazone], the “mitochondrial membrane potential and ROS in P3 population” value in data set [1] (MC38-bearing mice, FCCP combined with PD-L1 antibody) is “significantly augmented”. Moreover, the “absolute number and proportion of effector CD8+ T cells (CD62L- CD44+, P3) in DLNs” value in data set [1] (MC38-bearing mice, PD-L1 antibody + FCCP vs anti-PD-L1 antibody alone) is given as “significantly increased; also recorded: Increase”. Also, in data set [1] (MC38-bearing mice, PD-L1 antibody alone, or addition of FCCP), the “numbers of naive T cells (P1) and central memory T cells (P2) in DLNs” value was “no further increase”. Further, the “toxic effects such as decrease in mitochondrial mass or fall in membrane potential” value in data set [1] (at the dose used (1.2 mg/kg)) is reported as “did not have toxic effects”. The IFN-γ production result in data set [2] is given as “increased; also recorded: up-regulated”.
